Test results as given in US6376666B1 (Nauchno-Issledovatelsky Institut Farmakologii Rossiiskoi …, priority 1994, dated 2002).

Assays:
Type in all cases: in vivo
outbred male rats = experiment: conflict Vogel test (punished licking of water); settings: M ± mx
Protocol: The study of anxiolytic activity of chosen compounds was carried out in the experiments with outbred male rats weighing 180-200 g in standard conflict Vogel' procedure [Voronina T. A. et al., in: “Phenazepam”, Naukova Dumka, Kiev, 1982, p.89, 93, 146]. The main aim of the initial step of experiments was the training of rats to develop the feeling of thirst with following experience of water licking from bottle in the experimental chamber. The animals were deprived of water for 24 hours and were placed in the test chamber for 5-min adaptation period during which they had free access to the drinking bottle. After another 24 h deprivation period the rats were placed again in the test chamber and were allowed to drink water for 5 sec. Immediately afterwards drinking attempts were punished by electric shock (0,5 mA). Under this collision of drinking and protective reflexes the extremal situation was developed. In this situation the anxiety of punishment prevented the licking process. The number of shocks received throughout a 5-min experimental session was recorded.

male outbred mice = experiment: potentiation of sleep induced by sodium thiopental
Protocol: The possible hypnotic effects of choosen drugs was estimated according to method of potentiation of sleep induced by sodium thiopental. The male outbred mice weighing 20-25 g were injected i.p. with sodium thiopental at dose of 70 mg/kg. Two parameters were estimated: latent time of sleeping and duration of sleep. The used compounds were administered i.p. 30 min prior injection of sodium thiopental.

outbred male mice = experiment: rotarod test (myorelaxant activity); settings: cut-off 120 sec
Protocol: The myorelaxant activity of choosen compounds were studied in the outbred male mice weighing 22-25 g in rotarod test [Voronina T. A. et al., in: “Phenazepam”, Naukova Dumka, Kiev, 1982, p.145]. The animals were placed on the horizontal rotarod (D=2 cm) calibrated for a fixed speed of 4 rpm. According to the rotarod experimental protocol, normal motor coordination was defined by the ability of the animals to remain on the rotarod for an arbitrarily selected time of 120 sec.

C57B1/6 mice = experiment: open-field test, C57B1/6 mice (active type of emotional-stress reaction); settings: i.p., doses that activate Balb/c mice
Excerpt: (§1) The main point of this approach consists in comparative analysis of the behavioural effects of tested compounds in two inbred strains of mice Balb/c and C57B1/6 with different hereditary types of emotional-stress reactions (ESR). The anxiolytic effect was estimated as the activation of the locomotor activity of animals with “passive” type of ESR (Balb/c mice). The main index describing the sedative properties of tested drugs was the inhibition of the locomotor activity of mice with “active” type of ESR (C57B1/6 strain). The anxioselectivity was evaluated according to coincidence of doses range which activated or inhibited the behavior of mice of different strains. Earlier this approach has been successfully used for estimation of anxioselective activity of such known drugs as phenazepam [Seredenin S. B. et al., Bull.Exp.Biol.Med., 1979, v.88, N7, p.38; Seredenin S. B. et al., Ann.Inst.Super.Sanita, 1990, v.26, N1, p.81-88], mexidol [Seredenin S. B. et al., Khimiko-Farmatsevt.Zhurnal, 1987, N2, p.134; Vironina T. A., Seredenin S. B., Ann.Inst.Super.Sanita, 1988, v.24, N3, p.461-466] and gidazepam [Seredenin S. B. et al., in: “Gidazepam” Kiev, Naukova Dumka, 1992, p.92; Seredenin S. B., Blednov Yu. A., Phys.Chem.Biol.Med., 1993, v.1, N1, p.53-60].
(§2) Male C57B1/6 and Balb/c mice (“Stolbovaya” animal farm), weighing 20-22 g were used. The animals were housed in a separate animal room in groups of ten and maintained on 12 h light-dark cycle (light from 8.00 till 20.00) with free access to standard food and water during two weeks before experiment. Testing was performed between 9.00 and 13.00. Every used compound was administered intraperitoneally in water solutions 30 min before testing (0,1 ml solution per 10 g of weight). The “open-field” apparatus consisted of cylinder closed from one end, illuminated by four 75 W lamps fixed to the walls 100 cm above the floor. The “open-field” apparatus was 100 cm in diameter and white-painted; the floor was marked with 3 black circles and some radial lines divided the floor into 16 peripheral and 8 central segments. 30 min after injection each animal was placed in the same peripheral square on the floor for 3 min of testing after 1 min exposure in the dark chamber. The following behavior variables were recorded: 1) the number of crossings in the peripheral area (peripheral activity); 2) the number of crossings in the central segments (central activity); 3) the number of rearings (vertical activity); 4) the emotionality was measured as the number of defecations during the test. The sum of all types of locomotor activity was marked as total activity. The t-Student test was used for statistical analysis.

Balb/c mice = experiment: open-field test, Balb/c mice (passive type of emotional-stress reaction); set-up: key to Total activity: sum of all locomotor activity counts (crossings + rearings) in 3 min; settings: for Number of defecations / Peripheral activity (crossings) / Total activity / Central activity (crossings) / Vertical activity (rearings): M ± mx; for effect on the behavior (locomotor activity) of Balb/c mice in open-field test, in words: i.p., screening
Excerpt: as §1, §2

[1] = 0.5 mg/kg i.p. 30 min before thiopental 70 mg/kg i.p.
[2] = 1.0 mg/kg i.p. 30 min before thiopental 70 mg/kg i.p.
[3] = 5.0 mg/kg i.p. 30 min before thiopental 70 mg/kg i.p.
[4] = 10.0 mg/kg i.p. 30 min before thiopental 70 mg/kg i.p.

C=CCSc1nc2ccc(OCC)cc2[nH]1 [IV, 2-Allylthio-5-ethoxybenzimidazole]
number of punished lickings (shocks received in 5-min session) (outbred male rats; 1.0 mg/kg i.p.): 29.7 ± 5.3 | number of punished lickings (shocks received in 5-min session) (outbred male rats; 5.0 mg/kg i.p.): 31.0 ± 5.6 | number of punished lickings (shocks received in 5-min session) (outbred male rats; 10.0 mg/kg i.p.): 35.8 ± 7.8 | number of punished lickings (shocks received in 5-min session) (outbred male rats; 20.0 mg/kg i.p.): 62.3 ± 19.5 | duration of sleep after sodium thiopental (male outbred mice; [1]): 42.8 ± 13.5 min | latent time of sleep after sodium thiopental (male outbred mice; [1]): 3.0 ± 0.3 s | duration of sleep after sodium thiopental (male outbred mice; [2]): 32.5 ± 7.9 min | latent time of sleep after sodium thiopental (male outbred mice; [2]): 2.7 ± 0.3 s | duration of sleep after sodium thiopental (male outbred mice; [3]): 50.7 ± 11.0 min | latent time of sleep after sodium thiopental (male outbred mice; [3]): 2.8 ± 0.3 s | duration of sleep after sodium thiopental (male outbred mice; [4]): 45.1 ± 10.6 min | latent time of sleep after sodium thiopental (male outbred mice; [4]): 2.5 ± 0.1 s | time of remaining on the rotarod (outbred male mice; 0.1 mg/kg): 120 + 0 sec | time of remaining on the rotarod (outbred male mice; 1.0 mg/kg): 120 + 0 sec | time of remaining on the rotarod (outbred male mice; 5.0 mg/kg): 120 + 0 sec | time of remaining on the rotarod (outbred male mice; 10.0 mg/kg): 120 + 0 sec | time of remaining on the rotarod (outbred male mice; 20.0 mg/kg): 120 + 0 sec | effect on locomotor activity of C57B1/6 mice in open-field test, in words (C57B1/6 mice): without any changes in locomotor activity | Number of defecations (Balb/c mice; 0.1 mg/kg i.p.): 0.6 ± 0.5 | Peripheral activity (crossings) (Balb/c mice; 0.1 mg/kg i.p.): 12.6 ± 2.6 | Total activity (Balb/c mice; 0.1 mg/kg i.p.): 12.6 ± 2.6 | Peripheral activity (crossings) (Balb/c mice; 1.0 mg/kg i.p.): 11.4 ± 2.3 | Total activity (Balb/c mice; 1.0 mg/kg i.p.): 11.4 ± 2.3 | Number of defecations (Balb/c mice; 5.0 mg/kg i.p.): 1.7 ± 0.8 | Peripheral activity (crossings) (Balb/c mice; 5.0 mg/kg i.p.): 13.6 ± 3.5 | Total activity (Balb/c mice; 5.0 mg/kg i.p.): 13.6 ± 3.5 | Number of defecations (Balb/c mice; 10.0 mg/kg i.p.): 3.0 ± 0.7 | Peripheral activity (crossings) (Balb/c mice; 10.0 mg/kg i.p.): 9.5 ± 1.9 | Total activity (Balb/c mice; 10.0 mg/kg i.p.): 9.5 ± 1.9 | Number of defecations (Balb/c mice; 20.0 mg/kg i.p.): 2.5 ± 0.7 | Peripheral activity (crossings) (Balb/c mice; 20.0 mg/kg i.p.): 8.9 ± 2.0 | Total activity (Balb/c mice; 20.0 mg/kg i.p.): 8.9 ± 2.0 | effect on the behavior (locomotor activity) of Balb/c mice in open-field test, in words (Balb/c mice): able to activate the behavior of Balb/c mice

Cc1cc2nc(SCCN3CCCCC3)[nH]c2cc1C [XIV, 2-[2-(Piperidino)ethylthio]-5,6-dimethylbenzimidazole]
number of punished lickings (shocks received in 5-min session) (outbred male rats; 1.0 mg/kg i.p.): 31.6 ± 7.6 | number of punished lickings (shocks received in 5-min session) (outbred male rats; 5.0 mg/kg i.p.): 32.9 ± 5.8 | number of punished lickings (shocks received in 5-min session) (outbred male rats; 10.0 mg/kg i.p.): 36.0 ± 9.4 | number of punished lickings (shocks received in 5-min session) (outbred male rats; 20.0 mg/kg i.p.): 42.3 ± 10.8 | duration of sleep after sodium thiopental (male outbred mice; [1]): 91.0 ± 17.8 min | latent time of sleep after sodium thiopental (male outbred mice; [1]): 2.5 ± 0.5 s | latent time of sleep after sodium thiopental (male outbred mice; [2]): 2.5 ± 0.2 s | duration of sleep after sodium thiopental (male outbred mice; [3]): 86.4 ± 13.9 min | latent time of sleep after sodium thiopental (male outbred mice; [3]): 2.2 ± 0.2 s | duration of sleep after sodium thiopental (male outbred mice; [4]): 70.6 ± 9.0 min | latent time of sleep after sodium thiopental (male outbred mice; [4]): 2.9 ± 0.4 s | time of remaining on the rotarod (outbred male mice; 0.1 mg/kg): 120 + 0 sec | time of remaining on the rotarod (outbred male mice; 1.0 mg/kg): 120 + 0 sec | time of remaining on the rotarod (outbred male mice; 5.0 mg/kg): 120 + 0 sec | time of remaining on the rotarod (outbred male mice; 10.0 mg/kg): 120 + 0 sec | time of remaining on the rotarod (outbred male mice; 20.0 mg/kg): 120 + 0 sec | effect on locomotor activity of C57B1/6 mice in open-field test, in words (C57B1/6 mice): without any changes in locomotor activity | Central activity (crossings) (Balb/c mice; 0.1 mg/kg i.p.): 1.1 ± 0.7 | Number of defecations (Balb/c mice; 0.1 mg/kg i.p.): 1.3 ± 0.5 | Peripheral activity (crossings) (Balb/c mice; 0.1 mg/kg i.p.): 27.0 ± 6.3 | Total activity (Balb/c mice; 0.1 mg/kg i.p.): 28.2 ± 7.1 | Vertical activity (rearings) (Balb/c mice; 0.1 mg/kg i.p.): 0.1 ± 0.1 | Central activity (crossings) (Balb/c mice; 0.5 mg/kg i.p.): 4.7 ± 2.7 | Number of defecations (Balb/c mice; 0.5 mg/kg i.p.): 1.0 ± 0.4 | Peripheral activity (crossings) (Balb/c mice; 0.5 mg/kg i.p.): 44.4 ± 9.2 | Total activity (Balb/c mice; 0.5 mg/kg i.p.): 49.4 ± 10.7 | Vertical activity (rearings) (Balb/c mice; 0.5 mg/kg i.p.): 0.3 ± 0.3 | Central activity (crossings) (Balb/c mice; 1.0 mg/kg i.p.): 0.9 ± 0.8 | Number of defecations (Balb/c mice; 1.0 mg/kg i.p.): 2.9 ± 0.7 | Peripheral activity (crossings) (Balb/c mice; 1.0 mg/kg i.p.): 38.7 ± 4.8 | Total activity (Balb/c mice; 1.0 mg/kg i.p.): 39.7 ± 5.7 | Vertical activity (rearings) (Balb/c mice; 1.0 mg/kg i.p.): 0.1 ± 0.1 | Central activity (crossings) (Balb/c mice; 5.0 mg/kg i.p.): 2.8 ± 1.8 | Number of defecations (Balb/c mice; 5.0 mg/kg i.p.): 0.7 ± 0.7 | Peripheral activity (crossings) (Balb/c mice; 5.0 mg/kg i.p.): 58.7 ± 7.2 | Total activity (Balb/c mice; 5.0 mg/kg i.p.): 61.3 ± 9.0 | Number of defecations (Balb/c mice; 10.0 mg/kg i.p.): 2.0 ± 0.9 | Peripheral activity (crossings) (Balb/c mice; 10.0 mg/kg i.p.): 67.8 ± 11.1 | Total activity (Balb/c mice; 10.0 mg/kg i.p.): 67.8 ± 11.1 | Central activity (crossings) (Balb/c mice; 20.0 mg/kg i.p.): 3.4 ± 3.4 | Number of defecations (Balb/c mice; 20.0 mg/kg i.p.): 0.1 ± 0.1 | Peripheral activity (crossings) (Balb/c mice; 20.0 mg/kg i.p.): 17.3 ± 8.0 | Total activity (Balb/c mice; 20.0 mg/kg i.p.): 20.8 ± 9.6 | Vertical activity (rearings) (Balb/c mice; 20.0 mg/kg i.p.): 0.1 ± 0.1 | effect on the behavior (locomotor activity) of Balb/c mice in open-field test, in words (Balb/c mice): able to activate the behavior of Balb/c mice
